Key:
[1] = logP determination (PhysData, logP^1); details: for PhysData (logP (HCOOH)): HPLC gradient method, acetonitrile/0.1% HCOOH, EEC-Directive 79/831, Annex V.A8; for logP^1: stated in preparation examples
[2] = physchem
[3] = tested on: Myzus persicae; test: Myzus persicae-test (Spray application); format: in vivo; details: application rate of 500 g/ha; spray on Chinese cabbage leaf-disks, all instars
Procedure: Myzus persicae-test (Spray application)
(§1) To produce a suitable preparation of active compound, 1 part by weight of active compound is mixed with the stated amount of solvent and emulsifier, and the concentrate is diluted with emulsifier-containing water to the desired concentration.
Chinese cabbage (Brassica pekinensis) leaf-disks infected with all instars of the green peach aphid (Myzus persicae), are sprayed with a preparation of the active ingredient at the desired concentration.
(§2) After the specified period of time, mortality in % is determined. 100 % means that all aphids have been killed; o % means that none of the […] have been killed.

[4] = tested on: Phaedon cochleariae; test: Phaedon-test (spray application); format: in vivo; details: application rate of 500 g/ha; spray on Chinese cabbage leaf-disks, larvae
Procedure: Phaedon-test (spray application)
as §1
Chinese cabage (Brassica pekinesis) leafs-disks are treated by being sprayed with the preparation of the active compound of the desired concentration nd are, after drying, infested with mustard beetle larvae (Phaedon cochleariae).
(§3) After the specified period of time, mortality in % is determined. 100 % means that all spider mites have been killed; o % means that none of the […] have been killed.

[5] = tested on: Myzus persicae; test: Myzus-test (oral); format: in vivo; details: oral (suction)
Procedure: as §1
Hollow-ware are located with all instars of the green peach aphid (Myzus persicae). The treatement is carried out by suction of the preparation of active compound of the desired concentration.
as §2

[6] = tested on: Tetranychus urticae; test: Tetranychus-test, OP-resistant (spray application); format: in vivo; details: spray on French bean
Procedure: Tetranychus-test, OP-resistant (spray application)
as §1
French bean (Phaseolus vulgaris) which are heavily infested with all stages of the two spotted spidermite (Tetranychus urticae), are sprayed with a preparation of the active ingredient at the desired concentration.
as §3

[7] = tested on: Boophilus microplus; test: Boophilus microplus-test (injection); format: in vivo; details: application rate of 20 µg/animal; injection in the abdomen
Procedure: Boophilus microplus-test (injektion)
as §1
The solution of the active compound is injected in the abdomen (Boophilus microplus); the animals are transferred into a cup and stayed in a rooming with an air condition.
After the specified period of time, the efficiany mortality in % is determined. 100 % means that no tick has lay fertile eggs.

[8] = Table I-1, cells marked (A) are 1H-NMR, not logP

Compound	PhysData (logP^1) [1, 8]	chromatographic logP [2]	activity (mortality in %) [3] [%]	also measured
COC(=O)CCCNC(=S)N1CCOC1=NC1Cc2ccccc2C1 [1-24]	3.6			
S=C(NCc1ccccc1Cl)N1CCOC1=NC1Cc2ccccc2C1 [1-38]		4.9		
COC(=O)C(NC(=S)N1CCOC1=NC1Cc2ccccc2C1)C(C)C (centres unmarked) [1-25]	4.4		≥ 80	
CCNC(=S)N1CCOC1=NC1Cc2ccccc2C1 [1-5]	3.46		≥ 80	
COC(=O)CCNC(=S)N1CCOC1=NC1Cc2ccccc2C1 [1-22]	3.2		≥ 80	
COCCNC(=S)N1CCNC1=NC1Cc2ccccc2C1 [3-7]				PhysData (logP (HCOOH)) ([1]; Table I-3): 1.46; logP^1 [1]: 1.46
O=C(NC(=S)N1CCOC1=NC1Cc2ccccc2C1)c1ccccc1 [1-11]	3.11			
FC(F)(F)CNC(=S)N1CCOC1=NC1Cc2ccccc2C1 [1-6]	4.28		≥ 80	
CCCNC(=S)N1CCOC1=NC1Cc2ccccc2C1 [1-18]	3.94		≥ 80	
S=C(NCC1CCCO1)N1CCOC1=NC1Cc2ccccc2C1 (centres unmarked) [1-28]		3.6	≥ 80	
c1ccc2c(c1)CC(NC1=NCCS1)C2 [2-1, 2-[2-(2,3-dihydro-1H-inden)-amino]-4,5-dihydrothiazole]				PhysData (logP^1) ([1]; Table I-2): 0.66
FC(F)(F)C1CCCC(NC(=S)N2CCOC2=NC2Cc3ccccc3C2)C1 (centres unmarked) [1-33]		4.7		
CC(C)NC(=S)N1CCOC1=NC1Cc2ccccc2C1 [1-30]	4.0		≥ 80	
S=C(NCc1ccccc1)N1CCOC1=NC1Cc2ccccc2C1 [1-34]	5.2			
CCCC(C)NC(=S)N1CCOC1=NC1Cc2ccccc2C1 (centres unmarked) [1-13]		5	≥ 80	activity (mortality in %) [4]: ≥ 80%
FC(F)(F)C1CCC(NC(=S)N2CCOC2=NC2Cc3ccccc3C2)CC1 (centres unmarked) [1-29]		5.1		
S=C(NCCc1ccccc1)N1CCOC1=NC1Cc2ccccc2C1 [1-40]	4.6			
S=C(NCC1CC1)N1CCOC1=NC1Cc2ccccc2C1 [1-16]	3.24		≥ 80	
FC(F)(F)CNC(=S)N1CCSC1=NC1Cc2ccccc2C1 [2-6]				PhysData (logP^1) ([1]; Table I-2): 4.80; logP^1 [1]: 4.8

Compound	PhysData (logP^1) [1, 8]	chromatographic logP [2]	activity (mortality in %) [3] [%]	also measured
S=C(NCc1ccc2c(c1)OCO2)N1CCOC1=NC1Cc2ccccc2C1 [1-39]		4.1	≥ 80	
COC(CNC(=S)N1CCOC1=NC1Cc2ccccc2C1)OC [1-12]		3.6	≥ 80	activity (mortality in %) [4]: ≥ 80%
CC(NC(=S)N1CCOC1=NC1Cc2ccccc2C1)c1ccc(Cl)cc1 (centres unmarked) [1-43]		5.3		
c1ccc2c(c1)CC(N=C1NCCO1)C2 [1-1, 2-[2-(2,3-dihydro-1H-inden)-amino]-4,5-dihydrooxazole]	0.81		≥ 80	activity (mortality in %) ([5]; application rate of 20 ppm): ≥ 80%; activity (mortality in %) ([6]; application rate of 100 g/ha): ≥ 80%
CC(NC(=S)N1CCOC1=NC1Cc2ccccc2C1)C(F)(F)F (centres unmarked) [1-20]	4.62		≥ 80	
c1ccc2c(c1)CC(NC1=NCCN1)C2 [3-1]				PhysData (logP (HCOOH)) ([1]; Table I-3): 0.52
S=C(NCCc1cccc(Cl)c1)N1CCOC1=NC1Cc2ccccc2C1 [1-120]		5.1		
CCOC(=O)CNC(=S)N1CCSC1=NC1Cc2ccccc2C1 [2-8]				PhysData (logP^1) ([1]; Table I-2): 4.41
S=C(NC1CCCC1)N1CCOC1=NC1Cc2ccccc2C1 [1-32]		4.74	≥ 80	
C=CCNC(=S)N1CCOC1=NC1Cc2ccccc2C1 [1-17]	3.75		≥ 80	
CC(C)CNC(=S)N1CCOC1=NC1Cc2ccccc2C1 [1-21]	4.51		≥ 80	
S=C(NCc1cccnc1)N1CCOC1=NC1Cc2ccccc2C1 [1-42]		2	≥ 80	
S=C(Nc1ccccn1)N1CCOC1=NC1Cc2ccccc2C1 [1-50]		1.6	≥ 80	activity (mortality in %) [4]: ≥ 80%
Fc1ccc2c(c1)CC(N=C1NCCO1)C2 (centres unmarked) [1-64]	0.73			
S=C(NC1CC1)N1CCOC1=NC1Cc2ccccc2C1 [1-31]	3.5			
CCOC(=O)C(C)NC(=S)N1CCOC1=NC1Cc2ccccc2C1 (centres unmarked) [1-26]	4.2		≥ 80	
CCC(CC)NC(=S)N1CCOC1=NC1Cc2ccccc2C1 [1-14]	4.90		≥ 80	
S=C(NCc1ccc(Cl)cc1)N1CCOC1=NC1Cc2ccccc2C1 [1-36]		4.9	≥ 80	
CC(NC(=S)N1CCOC1=NC1Cc2ccccc2C1)c1cccc(Cl)c1 (centres unmarked) [1-45]		5.3	≥ 80	

Compound	PhysData (logP^1) [1, 8]	chromatographic logP [2]	activity (mortality in %) [3] [%]	also measured
CNC(=S)N1CCOC1=NC1Cc2ccccc2C1 [1-2]	2.36		≥ 80	logP^1 [1]: 2.36; activity (mortality in %) ([5]; application rate of 20 ppm): ≥ 80%
CC(NC(=S)N1CCOC1=NC1Cc2ccccc2C1)c1ccccc1 (centres unmarked) [1-35]	4.4			
S=C(NCc1ccc(Cl)cc1Cl)N1CCOC1=NC1Cc2ccccc2C1 [1-49]		5.7		
COc1ccc(CNC(=S)N2CCOC2=NC2Cc3ccccc3C2)cc1OC [1-48]		3.7		
CCCCNC(=S)N1CCOC1=NC1Cc2ccccc2C1 [1-19]	4.46		≥ 80	
CNC(=S)N1CCSC1=NC1Cc2ccccc2C1 [2-2]				PhysData (logP^1) ([1]; Table I-2): 4.05
CCC(NC(=S)N1CCOC1=NC1Cc2ccccc2C1)C(=O)OC (centres unmarked) [1-27]	4.0		≥ 80	
CC(NC(=S)N1CCOC1=NC1Cc2ccccc2C1)c1ccccc1Cl (centres unmarked) [1-44]		5.2		
O=C(NCCCl)NC1Cc2ccccc2C1 [4-1]			≥ 80	PhysData (logP (HCOOH)) ([1]; Table 1-4): 1.92; activity (mortality in %) ([5]; application rate of 100 ppm): ≥ 80%
CC(=O)NC(=S)N1CCOC1=NC1Cc2ccccc2C1 [1-10]	2.53			
CCOC(=O)CC(C)NC(=S)N1CCOC1=NC1Cc2ccccc2C1 (centres unmarked) [1-23]	4.0			activity (mortality in %) [4]: ≥ 80%
COCCNC(=S)N1CCSC1=NC1Cc2ccccc2C1 [2-7]				PhysData (logP^1) ([1]; Table I-2): 4.11
Fc1ccc(CNC(=S)N2CCOC2=NC2Cc3ccccc3C2)cc1 [1-47]		4.4		
Cc1ccc(CNC(=S)N2CCOC2=NC2Cc3ccccc3C2)cc1 [1-46]		4.8		
S=C(NCCc1ccc(Cl)cc1)N1CCOC1=NC1Cc2ccccc2C1 [1-41]		5.1		
COCCNC(=S)N1CCOC1=NC1Cc2ccccc2C1 [1-7]		3.25	≥ 80	efficiency (100 % means that no tick has lay fertile eggs) [7]: ≥ 80%; activity (mortality in %) ([6]; application rate of 500 g/ha): ≥ 80%
S=C(NCc1cccc(Cl)c1)N1CCOC1=NC1Cc2ccccc2C1 [1-37]		4.9	≥ 80	
COC(=O)CNC(=S)N1CCOC1=NC1Cc2ccccc2C1 [1-8]	3.20			activity (mortality in %) ([5]; application rate of 20 ppm): ≥ 80%

Reference: EP1988080A1, “Insecticidal substituted 2-aminoindanes” (Bayer CropScience AG, priority 2007, dated 2008)
